{"source": "paper PMC8344022", "about": "“Small-molecule inhibitor of AF9/ENL-DOT1L/AF4/AFF4 interactions suppresses malignant gene expression and tumor growth” (Theranostics, 2021)", "key": {"[1]": {"test_system": "Kasumi-1 cells", "design": "method as in earlier work", "conditions": "read-out: Cytotoxicity EC50; cited from earlier work"}, "[2]": {"test_system": "H3K79me2 at gene promoters in Molm-13 cells", "assay": "Chromatin immunoprecipitation (ChIP)-qPCR", "assay_type": "cell-based", "conditions": "2 μM", "procedure": "(§1) Next, compound 1 was tested for its ability to change expression of characteristic MLL-r leukemia genes HoxA9, Meis1 and Myc. Myc is also overexpressed in a broad range of AML and other cancers. […] (Figure S5), presumably because SEC is not recruited there.\nChromatin immunoprecipitation. […] Cells were lysed with nuclear lysis buffer and sonicated to ~100-1000 bp fragments, which was incubated at 4 °C overnight with the H3K79me2 antibody (#5427, Cell signaling) and IgG (C15410206, Diagenode). Protein A/G Magnetic Beads (10 µL, Novus Biologicals) were added and incubated for 2 h. The beads were washed 3x with RIPA buffer and 2x with TE buffer. DNA on the beads was eluted for 2 hours at 68 °C in 100 μL of an elution buffer (20 mM Tris pH 7.5, 5 mM EDTA, 50 mM NaCl, 1% SDS, 50 μg/ml proteinase K) (2x), and purified using a ChIP DNA Clean & Concentrator kit (Novus Biologicals). qPCR was done using the method described above."}, "[3]": {"test_system": "HoxA9, Meis1 and Myc expression in Molm-13 cells", "assay": "qPCR of MLL target genes", "assay_type": "cell-based", "conditions": "4 days", "procedure": "as §1\n(§2) RNA extraction and Quantitative real-time PCR (qPCR). 10^5 cells/ml were incubated with a compound for 4 days and the RNA was extracted using RNeasy mini kit (#74104, Qiagen). 100-1000 ng of total RNA was reverse transcribed using iScript™ Reverse Transcription Supermix (Bio-Rad) using the manufacturer's protocol. Quantitative real-time PCR was carried out using Fast SYBR Green Master Mix (Applied Biosystems) according to the manufacturer's instructions. Measurements were performed in triplicate, using GAPDH as the reference gene. Real-time PCR was performed using Biosystems Step One Plus detection system. The following sequences of primers are used: […]"}, "[4]": {"test_system": "HoxA9, Meis1 and Myc expression in MV4;11 cells", "assay": "qPCR of MLL target genes", "assay_type": "cell-based", "conditions": "4 days", "procedure": "as §1, §2"}, "[5]": {"test_system": "HL60 cells", "design": "method as in earlier work", "conditions": "read-out: Cytotoxicity EC50; cited from earlier work"}, "[6]": {"test_system": "THP-1 cells", "design": "method as in earlier work", "conditions": "read-out: Cytotoxicity EC50; cited from earlier work"}, "[7]": {"test_system": "Molm-13 cells", "assay": "Antiproliferation assay (XTT)", "assay_type": "cell-based", "conditions": "14-day incubation, read-out: Cytotoxicity EC50", "procedure": "(§3) Antiproliferation assay. Proliferation inhibition assays for suspension blood cancer cells were performed using an XTT assay kit (Roche). Proliferation inhibition assays for solid tumor cell lines MCF-7, MDA-MB-231, Panc1, Panc28 were performed using an MTT assay (Sigma). The antiproliferation EC50 values were determined using Prism 5 and the reported results were the mean values of at least three independent experiments. The incubation time for compound 1 was 7 days and that for EPZ4777 was 14 days."}, "[8]": {"test_system": "U266 cells", "assay": "Antiproliferation assay (XTT)", "assay_type": "cell-based", "conditions": "14-day incubation, read-out: Cytotoxicity EC50", "procedure": "as §3"}, "[9]": {"test_system": "RPMI-8226 cells", "assay": "Antiproliferation assay (XTT)", "assay_type": "cell-based", "conditions": "14-day incubation, read-out: Cytotoxicity EC50", "procedure": "as §3"}, "[10]": {"test_system": "MV4;11 cells", "assay": "Antiproliferation assay (XTT)", "assay_type": "cell-based", "conditions": "14-day incubation, read-out: Cytotoxicity EC50", "procedure": "as §3"}, "[11]": {"test_system": "Jurkat cells", "design": "method as in earlier work", "conditions": "read-out: Cytotoxicity EC50; cited from earlier work"}, "[12]": {"test_system": "nuclear protein levels in Molm-13 cells", "assay": "Western blot of nuclear proteins", "assay_type": "cell-based", "conditions": "3 days", "procedure": "Next, we investigated how compound 1 affects these transcription cofactors in the nucleus, where they regulate gene expression. […] DOT1L inhibitor EPZ4777 [25] reduced the methylation levels of H3K79, but not other proteins (Figure 3B). […] In this regard, despite lack of activity against DOT1L, compound 1 can mimic EPZ4777 to reduce H3K79 methylation.\nWestern blot. 3x10^6 cells/well were treated with increasing concentrations of a compound for 3 days and nuclear proteins extracted with the EpiQuik Nuclear Extraction Kit (Epigentek) according to the manufacturer's protocol. Equal amounts of proteins were separated on SDS-PAGE and transferred to PVDF membranes. The blots were probed with primary antibodies, followed by anti-rabbit or anti-mouse IgG (Thermo Scientific) secondary antibodies. The primary antibodies used in this research were MBP Mouse mAb (#2396, Cell signaling), DOT1L Rabbit mAb (#77087, Cell signaling), MLL-N Rabbit mAb (#14689, Cell signaling), ENL Rabbit mAb (#14893, Cell signaling), Di-Methyl-Histone H3K79 Rabbit mAb (#5427, Cell signaling), Mono-Methyl-Histone H3K79 Rabbit mAb (#9398, Cell signaling), Histone H3 Rabbit mAb (#4499, Cell signaling), AF4 Rabbit pAb (#NBP1-28705, Novusbio) and AFF4 Rabbit pAb (#ab103586, Abcam)."}, "[13]": {"test_system": "Panc-28 cells", "assay": "Antiproliferation assay (MTT)", "assay_type": "cell-based", "conditions": "14-day incubation, read-out: Cytotoxicity EC50", "procedure": "as §3"}, "[14]": {"test_system": "MDA-MB-231 cells", "assay": "Antiproliferation assay (MTT)", "assay_type": "cell-based", "conditions": "14-day incubation, read-out: Cytotoxicity EC50", "procedure": "as §3"}, "[15]": {"test_system": "MCF-7 cells", "assay": "Antiproliferation assay (MTT)", "assay_type": "cell-based", "conditions": "14-day incubation, read-out: Cytotoxicity EC50", "procedure": "as §3"}, "[16]": {"test_system": "Panc-1 cells", "assay": "Antiproliferation assay (MTT)", "assay_type": "cell-based", "conditions": "14-day incubation, read-out: Cytotoxicity EC50", "procedure": "as §3"}}}
{"compound": "CC(C)N(CCCNC(=O)Nc1ccc(C(C)(C)C)cc1)C[C@H]1O[C@@H](n2ccc3c(N)ncnc32)[C@H](O)[C@@H]1O", "note": "[EPZ4777, reference compound]", "values": [{"measurement": "EC50", "setting": "[1]", "value": 33, "unit": "µM"}, {"measurement": "H3K79me2 in the gene promoters of HoxA9 and Myc", "setting": "[2]", "value": "decreased levels of H3K79me2"}, {"measurement": "Expression of MLL target genes HoxA9, Meis1 and Myc", "setting": "[3]", "value": "behaved similarly"}, {"measurement": "Expression of MLL target genes HoxA9, Meis1 and Myc", "setting": "[4]", "value": "behaved similarly"}, {"measurement": "EC50", "setting": "[5]", "value": "> 50", "unit": "µM"}, {"measurement": "EC50", "setting": "[6]", "value": 3.4, "unit": "µM"}, {"measurement": "EC50", "setting": "[7]", "value": "1.2 ± 0.2", "unit": "µM"}, {"measurement": "EC50", "setting": "[8]", "value": "> 50", "unit": "µM"}, {"measurement": "EC50", "setting": "[9]", "value": "> 50", "unit": "µM"}, {"measurement": "EC50", "setting": "[10]", "value": "1.1 ± 0.3", "unit": "µM"}, {"measurement": "EC50", "setting": "[11]", "value": "> 50", "unit": "µM"}, {"measurement": "Nuclear levels of DOT1L, H3K79me1 and me2, ENL and AFF4", "setting": "[12]", "value": "only reduced those of H3K79me1 and me2, but not other proteins"}, {"measurement": "EC50", "setting": "[13]", "value": "> 50", "unit": "µM"}, {"measurement": "EC50", "setting": "[14]", "value": "> 50", "unit": "µM"}, {"measurement": "EC50", "setting": "[15]", "value": "> 50", "unit": "µM"}, {"measurement": "EC50", "setting": "[16]", "value": "> 50", "unit": "µM"}]}
